Data as given in patent publication US9701670B2, “Pyrazolyl-ureas as kinase inhibitors” (RESPIVERT LIMITED, priority 2013, dated 2017).

Experiments:
[1] = molecular target: T1, p38 MAPKα isoform (MAPK14) (Homo sapiens (Human), UniProt Q16539); experiment: p38 MAPKα enzyme inhibition (FRET, Z-LYTE), Method 2; format: biochemical; conditions: Method 2, different laboratory (Table 4a2)
[2] = test system: Balb/c mice; experiment: (A) LPS-induced neutrophil accumulation in mice; format: in vivo, mouse; conditions: mice, test substance at 0.2 mg/mL, dosed 8 hr pre-LPS challenge; for Neutrophil numbers in BAL: +/−SEM, N = 8
Method: […] At T=0, mice are placed into an exposure chamber and exposed to LPS (7.0 mL, 0.5 mg/mL solution in PBS) for 30 min). After a further 8 hr the animals are anesthetized, their tracheas cannulated and BALF extracted by infusing and then withdrawing from their lungs 1.0 mL of PBS via the tracheal catheter. Total and differential white cell counts in the BALF samples are measured using a Neubaur haemocytometer. Cytospin smears of the BALF samples are prepared by centrifugation at 200 rpm for 5 min at RT and stained using a DiffQuik stain system (Dade Behring). Cells are counted using oil immersion microscopy. Data for neutrophil numbers in BAL are shown as mean±S.E.M. (standard error of the mean). The percentage inhibition of neutrophil accumulation is calculated for each treatment relative to vehicle treatment.

[3] = test system: Differentiated U937 cells; experiment: (l) Cell viability: MTT assay; format: cell-based, human; conditions: 1 μg/mL
How it was run: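 Differentiated U937 cells were exposed to compound at 1 or 10 μg/mL either 4 h in 5% FCS RPMI1640 or 24 h in 10% FCS RPMI1640, then given MTT for 1 h, DMSO-solubilised and read at 550 nm. Percent viability loss versus 0.5% DMSO vehicle; apparent gains appear negative.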

[4] = test system: β-catenin in d-U937 cells; experiment: (m) Accumulation of β catenin in d-U937 cells; format: cell-based, human
How it was run: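 PMA-differentiated U937 macrophage-type cells (100 ng/mL, 48–72 hr) were exposed to test compound or vehicle for 18 hr, then fixed. β-catenin was measured by cell ELISA (HRP/TMB, OD450-655) and normalised to crystal violet OD595. Signals below 15% of the standard control were designated "-ve".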

[5] = molecular target: T1, p38 MAPKα isoform (MAPK14); experiment: p38 MAPKα enzyme inhibition (FRET, Z-LYTE), Method 1; format: biochemical; conditions: Method 1 (Table 4a1)
[6] = molecular target: Syk (Homo sapiens (Human), UniProt P43405); experiment: Syk enzyme inhibition (FRET, Z-LYTE); format: biochemical; conditions: different laboratory (Table 4a2)
Method: (§1) The enzyme inhibitory activities of compounds disclosed herein are determined by FRET using synthetic peptides labelled with both donor and acceptor fluorophores (Z-LYTE, Invitrogen Ltd., Paisley, UK).
The relevant enzyme (3000 ng/mL or 2000 ng/mL respectively, 2.5 μL) is incubated with the test compound (either 4 μg/mL, 0.4 μg/mL, 0.04 μg/mL, or 0.004 μg/mL, 2.5 μL each) for 2 hr at RT. The FRET peptides (8 μM, 2.5 μL), and appropriate ATP solutions (2.5 μL, 800 μM for c-Src, and 60 μM ATP for Syk) are then added to the enzymes/compound mixtures and incubated for 1 hr. Development reagent (protease, 5 μL) is added for 1 hr prior to detection in a fluorescence microplate reader (Varioskan® Flash, ThermoFisher Scientific).
(§2) In all cases, the site-specific protease cleaves non-phosphorylated peptide only and eliminates the FRET signal. Phosphorylation levels of each reaction are calculated using the ratio of coumarin emission (donor) over fluorescein emission (acceptor), for which high ratios indicate high phosphorylation and low ratios indicate low phosphorylation levels.

[7] = test system: HRV16; experiment: (j) HRV16 induced CPE in MRC5 cells; format: cell-based; conditions: HRV-16
Method: The supernatants are aspirated, and then fresh media added followed by incubation for 4 days. Where appropriate, cells are pre-incubated with compound or DMSO for 2 hr, and the compounds and DMSO added again after washout of the virus.
After washing, 1% SDS in distilled water (100 μL) is added to each well, and the plates are shaken lightly for 1-2 hr prior to reading the absorbance at 660 nm. The percentage inhibition for each well is calculated. The IC50 value is calculated from the concentration-response curve generated by the serial dilutions of the test compounds.

[8] = molecular target: GSK 3α (Homo sapiens (Human), UniProt P49840); experiment: GSK 3α enzyme inhibition (FRET, Z-LYTE), Method 1; format: biochemical; conditions: Method 1 (Table 4a1); read-out: IC50 Values for Enzyme Inhibition GSK3α
Chain of GSK 3α (P49840 whole entry): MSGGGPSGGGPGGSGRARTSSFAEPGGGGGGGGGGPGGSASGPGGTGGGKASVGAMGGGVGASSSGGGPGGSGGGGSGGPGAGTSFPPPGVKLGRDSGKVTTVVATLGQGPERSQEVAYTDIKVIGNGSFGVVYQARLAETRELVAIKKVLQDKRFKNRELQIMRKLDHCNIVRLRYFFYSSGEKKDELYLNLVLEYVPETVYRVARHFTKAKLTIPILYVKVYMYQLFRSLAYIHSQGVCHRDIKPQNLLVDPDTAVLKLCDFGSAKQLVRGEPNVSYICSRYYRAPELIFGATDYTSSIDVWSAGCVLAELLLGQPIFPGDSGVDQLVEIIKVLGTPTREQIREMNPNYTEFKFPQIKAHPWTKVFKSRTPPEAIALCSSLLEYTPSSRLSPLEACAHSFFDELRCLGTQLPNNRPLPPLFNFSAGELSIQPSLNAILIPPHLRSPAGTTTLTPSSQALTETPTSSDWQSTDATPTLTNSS
Method: as §1
The inhibitory activities of compounds of the invention against the GSK 3α enzyme isoform (Invitrogen), are evaluated by determining the level of activation/phosphorylation of the target peptide. The GSK3-α protein (500 ng/mL, 2.5 μL) is mixed with the test compound (2.5 μL at either 4 μg/mL, 0.4 μg/mL, 0.04 μg/mL, or 0.004 μg/mL) for 2 hr at RT. The FRET peptide (8 μM, 2.5 μL), which is a phosphorylation target for GSK3α, and ATP (40 μM, 2.5 μL) are then added to the enzyme/compound mixture and the resulting mixture incubated for 1 hr. Development reagent (protease, 5 μL) is added for 1 hr prior to detection in a fluorescence microplate reader (Varioskan® Flash, ThermoFisher Scientific).
as §2

[9] = test system: HCK; experiment: Enzyme binding assay (Kinomescan)
Method: These assays were conducted by DiscoverX (formerly Ambit; San Diego, Calif.). The percentage inhibition produced by incubation with a test compound is calculated relative to the non-inhibited control.

T1 sequence (Q16539 whole entry, canonical isoform): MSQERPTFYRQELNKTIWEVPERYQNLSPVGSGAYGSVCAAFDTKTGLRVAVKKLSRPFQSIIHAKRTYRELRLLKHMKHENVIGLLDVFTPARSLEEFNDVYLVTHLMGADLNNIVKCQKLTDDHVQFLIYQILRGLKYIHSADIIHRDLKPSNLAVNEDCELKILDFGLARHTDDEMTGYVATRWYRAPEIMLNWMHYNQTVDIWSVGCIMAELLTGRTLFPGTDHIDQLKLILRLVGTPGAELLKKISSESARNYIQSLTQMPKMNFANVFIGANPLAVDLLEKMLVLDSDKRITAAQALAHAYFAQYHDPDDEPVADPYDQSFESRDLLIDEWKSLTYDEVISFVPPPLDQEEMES

Row | Structure (SMILES) | IC50 [1] | % inhibition of neutrophil numbers in BAL [2] | Neutrophil numbers in BAL [2] | Cell viability at time point in d-U937 cells 4 h [3] | Cell viability at time point in d-U937 cells 24 h [3] | β-catenin inductive effect relative to the effect produced by the Reference Compound at 1 μg/mL ([4]; test concentration of 10 μg/mL, found to be negative) | IC50 [5] | IC50 [6] | IC50 [7] | IC50 [8] | % β-catenin induction ([4]; 1 μg/mL test compound) | % Inhibition of kinase binding at 500 nM HCK [9]
1 | COc1cc(Nc2nccc(Oc3ccc(NC(=O)Nc4cc(C(F)(F)C(F)(F)F)nn4-c4ccc(C)cc4)c4ccccc34)n2)cc(C(=O)NCCN2CCOCC2)c1 [Example 9, 3-Methoxy-N-(2-morpholinoethyl)-5-((4-((4-(3-(3-(perfluoroethyl)-1-(p-tolyl)-1H-pyrazol-5-yl)ureido)naphthalen-1-yl)oxy)pyrimidin-2-yl)amino)benzamide] | 174 nM | 51% | 8.0 ± 1.6 ×10^5/mL | −ve (−ve and +ve indicate that the value is below and above respectively, the no significant effect threshold, defined as 30% inhibition at 1 μg/mL at the time point indicated.) | −ve (−ve and +ve indicate that the value is below and above respectively, the no significant effect threshold, defined as 30% inhibition at 1 μg/mL at the time point indicated.) | less than 15% | 49 nM | 43 nM |  |  |  | 
2 | COc1ccc(-n2nc(C(C)C)cc2NC(=O)Nc2ccc(Oc3ccnc(Nc4cc(OC)cc(C(=O)NCCN5CCOCC5)c4)n3)c3ccccc23)cc1 [Example 53, 3-((4-((4-(3-(3-isopropyl-1-(4-methoxyphenyl)-1H-pyrazol-5-yl)ureido)naphthalen-1-yl)oxy)pyrimidin-2-yl)amino)-5-methoxy-N-(2-morpholinoethyl)benzamide] | 37 nM |  |  | −ve (−ve and +ve indicate that the value is below and above respectively, the no significant effect threshold, defined as 30% inhibition at 1 μg/mL at the time point indicated.) | −ve (−ve and +ve indicate that the value is below and above respectively, the no significant effect threshold, defined as 30% inhibition at 1 μg/mL at the time point indicated.) |  | 2 nM |  | 2 nM |  |  | 
3 | COc1cc(Nc2nccc(Oc3ccc(NC(=O)Nc4cc(C(C)C)nn4-c4ccc(C)cc4)c4ccccc34)n2)cc(C(=O)NCCO)c1 [Example 63, N-(2-hydroxyethyl)-3-((4-((4-(3-(3-isopropyl-1-(p-tolyl)-1H-pyrazol-5-yl)ureido)naphthalen-1-yl)oxy)pyrimidin-2-yl)amino)-5-methoxybenzamide] |  |  |  | −ve (−ve and +ve indicate that the value is below and above respectively, the no significant effect threshold, defined as 30% inhibition at 1 μg/mL at the time point indicated.) | −ve (−ve and +ve indicate that the value is below and above respectively, the no significant effect threshold, defined as 30% inhibition at 1 μg/mL at the time point indicated.) |  | 45 nM |  |  | 13000 nM |  | 
4 | COCC(=O)Nc1cc(Oc2ccc(NC(=O)Nc3cc(C(C)(C)C)nn3-c3ccc(C)cc3)c3ccccc23)ccn1 [Reference Compound, N-(4-(4-(3-(3-tert-butyl-1-p-tolyl-1H-pyrazol-5-yl)ureido)naphthalen-1-yloxy)pyridin-2-yl)-2-methoxyacetamide, reference compound] |  | 60% | 5.6 ± 0.86 ×10^5/mL | −ve (−ve and +ve indicate that the value is below and above respectively, the no significant effect threshold, defined as 30% inhibition at 1 μg/mL at the time point indicated.) | +ve (−ve and +ve indicate that the value is below and above respectively, the no significant effect threshold, defined as 30% inhibition at 1 μg/mL at the time point indicated.) |  |  |  |  |  | 208% | 100%
